PMC7051831 (ACS chemical biology, 2019)
“Also recorded” adds a separate entry of the source. Like-named read-outs stand apart in the source and are kept apart here.

Columns and labels:
[1] = cited from earlier work
[2] = molecular target: T1, interleukin-1β (IL-1β) (Homo sapiens, UniProt P01584); assay type: binding; conditions: IL-1β in LDAO/10MAG reverse micelles; for extent of binding across the protein surface (in words): Figure 1
[3] = alkane/water partitioning by simple NMR method; assay type: physicochemical; conditions: alkane (pentane)/water partitioning
[4] = molecular target: T1, interleukin-1β (IL-1β); test: ethanol titration under standard bulk conditions compared with RM titration

T1 sequence (P01584 117-269): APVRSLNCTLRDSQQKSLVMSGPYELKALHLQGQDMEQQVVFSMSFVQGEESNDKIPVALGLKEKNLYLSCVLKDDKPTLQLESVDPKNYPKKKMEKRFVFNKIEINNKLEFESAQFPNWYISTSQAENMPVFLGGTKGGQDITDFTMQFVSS

Row | Compound | binding affinity (in words) [2] | extent of binding across the protein surface (in words) [2] | other results
1 | CCCCCCCCCCCC[N+](C)(C)[O-] [LDAO] |  |  | pKa [1]: ~ 5
2 | CNC(C)=O [N-methylacetamide] | relatively weak binding affinities; also recorded: more diffuse and weak | relatively sparse binding across the protein surface | 
3 | CC#N [acetonitrile] | more diffuse and weak | relatively sparse binding across the protein surface | binding affinity (in words) ([2]; listed as Acetonitrile): relatively weak binding affinities; fraction of molecules retained in the RM [3]: over one-third
4 | CCO [ethanol] | more specific and with a relatively higher affinity | binding is limited to fewer sites | binding affinity (in words) ([2]; listed as Ethanol): relatively high binding affinity within a narrow Kd range; binding in RMs compared with bulk (in words) [4]: binds slightly more weakly to the protein in RMs than in bulk
5 | c1c[nH]cn1 [imidazole] | more specific and with a relatively higher affinity | bind at a larger number of sites | 
6 | CN [methylammonium] |  | bind at a larger number of sites | 
7 | c1cncnc1 [pyrimidine] |  | bind at a larger number of sites | fraction of molecules retained in the RM [3]: over one-third
